Here are results for 3 molecules from patent US7368431B2, “Polypeptide, the conjugate thereof with doxorubicine and a pharmaceutical composition based thereon” (Zakrytoe Aktsionernoe Obschestvo “Russkie Biotechnologll”, priority 2001, dated 2008).

Peptide text beside a SMILES is read from it. * marks the point of attachment. X1 = COc1cccc2c1C(=O)c1c(O)c3c(c(O)c1C2=O)C[C@@](O)(C(=O)CO)C[C@@H]3O[C@H]1C[C@H](N=CCCCC=N[C@@H](CCSC)C(=O)*)[C@H](O)[C@H](C)O1

Series [1] relates to human breast carcinoma cell line MCF-7^wt. The experiment in a line: Cytotoxicity, MTT cell survival. In kind it is cell-based. The settings on record: 72 hours. As to the method:
(§1) Efficacy of the conjugate was studied on the following cell lines: human breast carcinoma cell line MCF-7^wt and resistant human breast carcinoma cell line MCF-7^AdrR; human ovary carcinoma cell line SKOV3 and resistant human ovary carcinoma cell line SKVLB; and murine melanoma cell line B16.
(§2) Study protocol was common for all test runs. The cells cultivated in plastic flasks (COSTAR) in the RPMI medium (SIGMA), which contained 10% of fetal bovine serum (SIGMA), 100 U/ml of penicillin and 100 μg/ml of streptomycin, in a wet environment of 5% CO2 at 37° C., were inoculated in 96-well plates (Costar), 10000 in each well, and studied drugs were then added at different concentrations. After that, the cells were incubated for 72 hours. Two-four hours prior to the end of the incubation period, 50 μl (1 mg/ml) of the MTT solution (3-[4,5-dimethylthiazole-2yl]-2,5-diphenyltetrazole bromide (SIGMA) in the culture medium were added in each well. After the development of coloration, the medium was removed, formazan crystals were dissolved in 150 μl of dimethyl sulfoxide, and the absorbance was measured by spectrophotometry at 540 nm. Survival rates of the cells exposed to free and conjugated DR were determined in percent relative to the survival rate of controls taken as 100%.

Series [2] has as its system human ovary carcinoma cell line SKOV3. The experiment in a line: Cytotoxicity, MTT cell survival. The class given is cell-based. As to the method: as §1, §2
Series [3] concerns murine melanoma cell line B16. The experiment in a line: Cytotoxicity, MTT cell survival. The following applies: B16, 72 hours. In kind it is cell-based. The method, then:
as §1, §2

Series [4] deals with resistant human breast carcinoma cell line MCF-7^AdrR. The experiment in a line: Cytotoxicity, MTT cell survival. The following applies: 72 hours. In kind it is cell-based. The method, then:
as §1, §2

Series [5] concerns resistant human ovary carcinoma cell line SKVLB. The experiment in a line: Cytotoxicity, MTT cell survival. The class given is cell-based. The following applies: SKVLB^AdrR, 72 hours. The method, then: as §1, §2
Series [6] has as its system subcutaneously implanted line B16 cancer cells. Nature of the series: Murine implanted tumor model, intravenous administration. In kind it is in vivo. The settings on record: mice, s.c. B16, i.v. 0.2 mg/kg of doxorubicin once every four days; for Increase in ADL, %: three injections, relative to controls. The method, then:
The medicines were administered at a dose of 0.2 mg/kg of doxorubicin once every four days, three injections in total, starting from day 3 after the cancer implantation.

Series [7] concerns line NIH 3T3 murine fibroblast cells. The experiment in a line: Proliferative activity, 3H-thymidine incorporation. The following applies: NIH 3T3 fibroblasts, 0.1-1000 ng/ml, compared with known polypeptide I (EGF fragment), FIG. 1. In kind it is cell-based. The method, then:
Proliferative activity of the polypeptide was tested on line NIH 3T3 murine fibroplat cells. The rate of DNA biosynthesis was judged from the amount of ^3H-timidine incorporated in the […] cell fraction. Line NIH 3T3 murine fibroblast cells were cultivated in plastic flasks in the RPM1 medium (SIGMA), which contained 10% of fetal bovine serum (SIGMA), 100 U/mb of penicillin and 100 μg/ml of streptomycin, in a wet environment of 5% CO2 at 37° C. Proliferation of synchronized line NIH 3T3 fibroblasts was induced by adding to the cellular suspension the proposed polypeptide at a different concentration (0.1-1000 ng/ml). The fibroblasts were cultivated in 96-well plates in the complete medium, 200-800 cells in each well containing 200 μl of the medium. ^3H-thymidine (1 μCi/well, […]) was added 2 hours prior to the end of the incubation period. Radioactivity was measured by a scintillation counter (RACKBETA, LKB) with the use of a toluene-based scintillation fluid ZhS-8. The rate of DNA biosynthesis was expressed as the stimulation index (stimulated-to-control cell ratio) calculated by the formula: I=N/No×100%, where I is the stimulation index, N is the number of EGF-stimulated cells, and No is the number of control cells. […]

Setting [8] is: Homo sapiens, Breast carcinoma cell.

In the case of `CC[C@H](C)[C@H](NC(=O)[C@H](Cc1ccc(O)cc1)NC(=O)[C@H](CCSC)N=CCCCC=N[C@H]1C[C@H](O[C@H]2C[C@](O)(C(=O)CO)Cc3c(O)c4c(c(O)c32)C(=O)c2c(OC)cccc2C4=O)O[C@@H](C)[C@H]1O)C(=O)N[C@@H](CCC(=O)O)C(=O)N[C@@H](C)C(=O)N[C@@H](CC(C)C)C(=O)N[C@@H](CC(=O)O)C(=O)N[C@@H](CO)C(=O)N[C@@H](Cc1ccc(O)cc1)C(=O)N[C@@H](C)C(=O)N[C@@H](CS)C(=O)O` [Polypeptide-DR conjugate] (X1-YIEALDSYAC-OH), the IC50 in series [1] worked out at 1.3 nM; in series [2] (SKOV3, 72 hours), 22 nM; in series [3] it was 1.1 nM; in series [4] it was 150 nM; in series [5], 70 nM. Besides, in series [6] (three injections from day 3), the “ADL (average duration of life)” value was found to be 46.6 ± 5.7 days. For the same molecule, the “onset of tumors and their growth” value in series [6] (three injections from day 3, compared with free DR) was “considerable delay in the onset of tumors and slowed their growth”. Besides, the “Increase in ADL, %” value in series [6] (listed as Conjugate, 0.2 mg/kg) was 48.5%; in series [6] (listed as conjugate, 0.2 mg/kg), 46%.

Regarding “NH2-Met-Tyr-Ile-Glu-Ala-Leu-Asp-Ser-Tyr-Ala-Cys-COOH (H-MYIEALDSYAC-OH) [proposed polypeptide, synthetic polypeptide H2N-…-COOH similar to EGF fragment 21 to 31, Lys replaced with Ser]”, the “proliferative effect (incorporated 3H-thymidine, stimulation index)” value in series [7] is “more pronounced dose-dependent proliferative effect”.

For `COc1cccc2c1C(=O)c1c(O)c3c(c(O)c1C2=O)C[C@@](O)(C(=O)CO)C[C@@H]3O[C@H]1C[C@H](N)[C@H](O)[C@H](C)O1` [DR, doxorubicin], the IC50 in series [1] (setting [8]) came out at 58.6 nM; in series [2] (Homo sapiens, SK-OV-3, SKOV3, 72 hours), 209 nM; in series [3] (Mus musculus) it was 35 nM; in series [4] (setting [8]) it was 3700 nM; in series [5] (Homo sapiens), 2010 nM. Besides, the “ADL (average duration of life)” value in series [6] (three injections from day 3) was determined as 23.6 ± 4.0 days. The “Increase in ADL, %” value in series [6] was −24.8%.
